One data set concerns NCI-N87. Briefly: Therapeutic index: MTD in rat / MED in mouse efficacy model. It is filed as in vivo. Conditions: ADC of the drug linker. As for the experimental part: The therapeutic index of each ADC/drug linker was calculated using the following equation: TI=MTD in rat (mg/kg)/MED in mouse efficacy model (mg/kg)
The conditions of data set [1]: in vitro cytotoxicity, picomolar region; cited from earlier work.

With `COc1cc2c(cc1OCCCOc1cc3c(cc1OC)C(=O)N1CCC[C@H]1[C@H](O)N3C(=O)OCc1ccc(NC(=O)[C@H](C)NC(=O)[C@@H](NC(=O)CCOCCOCCOCCOCCOCCOCCOCCOCCNC(=O)CCN3C(=O)C=CC3=O)C(C)C)cc1)N=C[C@@H]1CCCN1C2=O` [Compound 1, 4-((2S,5S)-37-(2,5-dioxo-2,5-dihydro-1H-pyrrol-1-yl)-5-isopropyl-2-methyl-4,7,35-trioxo-10,13,16,19,22,25,28,31-octaoxa-3,6,34-triazaheptatriacontanamido)benzyl(11S,11aS)-11-hydroxy-7-methoxy-8-(3-(((S)-7-methoxy-5-oxo-2,3,5,11a-tetrahydro-1H-pyrrolo[2,1-c][1,4]benzodiazepin-8-yl)oxy)propoxy)-5-oxo-2,3,11,11a-tetrahydro-1H-pyrrolo[2,1-c][1,4]benzodiazepine-10(5H)-carboxylate], the “NCI-N87 MED” value in the data set on NCI-N87 came to 6 mg/kg. On to `COc1cc2c(cc1OCCCOc1cc3c(cc1OC)C(=O)N1CCC[C@H]1[C@H](O)N3C(=O)OCc1ccc(NC(=O)[C@H](C)NC(=O)[C@@H](NC(=O)CCOCCOCCOCCOCCOCCOCCOCCOCCNC(=O)CCN3C(=O)C=CC3=O)C(C)C)cc1)N=C[C@@H]1CCCN1C2=O` [Compound 2, 4-((2S,5S)-37-(2,5-dioxo-2,5-dihydro-1H-pyrrol-1-yl)-5-isopropyl-2-methyl-4,7,35-trioxo-10,13,16,19,22,25,28,31-octaoxa-3,6,34-triazaheptatriacontanamido)benzyl(11S,11aS)-11-hydroxy-7-methoxy-8-(3-(((S)-7-methoxy-5-oxo-2,3,5,11a-tetrahydro-1H-pyrrolo[2,1-c][1,4]benzodiazepin-8-yl)oxy)propoxy)-5-oxo-2,3,11,11a-tetrahydro-1H-pyrrolo[2,1-c][1,4]benzodiazepine-10(5H)-carboxylate], for which the “NCI-N87 MED” value with NCI-N87 came to 2 mg/kg.

Regarding `COc1cc2c(cc1OCc1cccc(COc3cc4c(cc3OC)C(=O)N3CCC[C@H]3[C@H](O)N4C(=O)OCc3ccc(NC(=O)[C@H](C)NC(=O)[C@@H](NC(=O)CCOCCOCCOCCOCCOCCOCCOCCOCCNC(=O)CCN4C(=O)C=CC4=O)C(C)C)cc3)c1)N=C[C@@H]1CCCN1C2=O` [Compound 3, 4-((2S,5S)-37-(2,5-dioxo-2,5-dihydro-1H-pyrrol-1-yl)-5-isopropyl-2-methyl-4,7,35-trioxo-10,13,16,19,22,25,28,31-octaoxa-3,6,34-triazaheptatriacontanamido)benzyl (11S,11aS)-11-hydroxy-7-methoxy-8-((3-((((S)-7-methoxy-5-oxo-2,3,5,11a-tetrahydro-1H-benzo[e]pyrrolo[1,2-a][1,4]diazepin-8-yl)oxy)methyl)benzyl)oxy)-5-oxo-2,3,11,11a-tetrahydro-1H-benzo[e]pyrrolo[1,2-a][1,4]diazepine-10(5H)-carboxylate], the “NCI-N87 MED” value in the data set with NCI-N87 came to 1 mg/kg. With `C=C1C[C@H]2C=Nc3cc(OCCCOc4cc5c(cc4OC)C(=O)N4CC(=C)C[C@H]4C=N5)c(OC)cc3C(=O)N2C1` [SG2000], the “cytotoxic potency relative to DSB-120” value in data set [1] was roughly 9000 fold.

(Values after patent US11370801B2, “Pyrrolobenzodiazepine conjugates” (priority 2017, dated 2022).)
